The kinase profiling compilation of Christmann-Franck et al. (2016)

Assays:
Test in all cases: radiometric filter-binding kinase assay
CLK2 (human) = CLK2 (human) (UniProt P49760)
HIPK3 (human) = HIPK3 (human) (UniProt Q9H422)
STK3 (human) = STK3 (human) (UniProt Q13188)
PRKCZ (human) = PRKCZ (human) (UniProt Q05513)
JAK2 JH1 JH2 (human) = JAK2 JH1 JH2 (human) (UniProt O60674)
MST4 (human) = MST4 (human) (UniProt Q9P289)
MAP3K5 (human) = MAP3K5 (human) (UniProt Q99683)
PLK1 (human) = PLK1 (human) (UniProt P53350)
MARK3 (human) = MARK3 (human) (UniProt P27448)
PRKCA (human) = PRKCA (human) (UniProt P17252)
FLT1 (human) = FLT1 (human) (UniProt P17948)
NUAK1 (human) = NUAK1 (human) (UniProt O60285)
MAPK1 (human) = MAPK1 (human) (UniProt P28482)
RPS6KA5 KD1 KD2 (human) = RPS6KA5 KD1 KD2 (human) (UniProt O75582)
TAOK1 (human) = TAOK1 (human) (UniProt Q7L7X3)
HIPK1 (human) = HIPK1 (human) (UniProt Q86Z02)
EPHB4 (human) = EPHB4 (human) (UniProt P54760)
ERBB4 (human) = ERBB4 (human) (UniProt Q15303)
BRSK2 (human) = BRSK2 (human) (UniProt Q8IWQ3)
AURKA (human) = AURKA (human) (UniProt O14965)
SRC (human) = SRC (human) (UniProt P12931)
MAPK3 (human) = MAPK3 (human) (UniProt P27361)
MAP3K1 (human) = MAP3K1 (human) (UniProt Q13233)
EEF2K (human) = EEF2K (human) (UniProt O00418)
CDK2 CCNA2 (human) = CDK2 CCNA2 (human) (UniProt P20248+P24941)
PAK6 (human) = PAK6 (human) (UniProt Q9NQU5)
GCK (human) = GCK (human) (UniProt Q12851)
MARK4 (human) = MARK4 (human) (UniProt Q96L34)
CHEK2 (human) = CHEK2 (human) (UniProt O96017)
RPS6KA3 KD1 KD2 (human) = RPS6KA3 KD1 KD2 (human) (UniProt P51812)
[1] = tested on: SGK1 (human), O00141 [S422D]; conditions: compound 10.0 µM
DAPK1 (human) = DAPK1 (human) (UniProt P53355)
NTRK1 (human) = NTRK1 (human) (UniProt P04629)
CHEK1 (human) = CHEK1 (human) (UniProt O14757)
RPS6KA1 KD1 KD2 (human) = RPS6KA1 KD1 KD2 (human) (UniProt Q15418)

Chain of SRC (human) (P12931 whole entry, looked up): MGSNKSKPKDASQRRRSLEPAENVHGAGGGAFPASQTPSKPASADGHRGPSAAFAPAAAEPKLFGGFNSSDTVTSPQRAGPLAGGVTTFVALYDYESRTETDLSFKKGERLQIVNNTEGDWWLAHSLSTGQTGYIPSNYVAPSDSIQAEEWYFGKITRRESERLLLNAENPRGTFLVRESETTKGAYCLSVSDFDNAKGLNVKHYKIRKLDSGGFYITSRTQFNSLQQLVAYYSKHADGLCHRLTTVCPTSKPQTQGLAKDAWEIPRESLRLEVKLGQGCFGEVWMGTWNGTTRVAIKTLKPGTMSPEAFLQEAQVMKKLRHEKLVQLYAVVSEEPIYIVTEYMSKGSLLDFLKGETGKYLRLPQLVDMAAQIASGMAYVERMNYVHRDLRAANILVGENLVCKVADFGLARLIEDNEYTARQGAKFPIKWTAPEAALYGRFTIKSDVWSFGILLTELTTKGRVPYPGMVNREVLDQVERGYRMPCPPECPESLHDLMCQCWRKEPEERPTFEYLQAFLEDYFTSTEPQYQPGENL
Chain of MAPK3 (human) (P27361 whole entry, looked up): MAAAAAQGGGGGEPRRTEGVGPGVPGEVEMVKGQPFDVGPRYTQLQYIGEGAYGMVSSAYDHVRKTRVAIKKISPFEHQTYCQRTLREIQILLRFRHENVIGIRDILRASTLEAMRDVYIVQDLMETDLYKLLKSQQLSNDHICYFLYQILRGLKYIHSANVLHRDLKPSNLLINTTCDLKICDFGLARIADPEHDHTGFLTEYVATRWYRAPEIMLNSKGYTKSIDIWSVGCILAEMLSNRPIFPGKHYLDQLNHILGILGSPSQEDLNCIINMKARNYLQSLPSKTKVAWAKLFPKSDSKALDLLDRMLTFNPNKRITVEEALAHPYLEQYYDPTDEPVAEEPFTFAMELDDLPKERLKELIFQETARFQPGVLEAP
Chain of GCK (human) (Q12851 whole entry, looked up): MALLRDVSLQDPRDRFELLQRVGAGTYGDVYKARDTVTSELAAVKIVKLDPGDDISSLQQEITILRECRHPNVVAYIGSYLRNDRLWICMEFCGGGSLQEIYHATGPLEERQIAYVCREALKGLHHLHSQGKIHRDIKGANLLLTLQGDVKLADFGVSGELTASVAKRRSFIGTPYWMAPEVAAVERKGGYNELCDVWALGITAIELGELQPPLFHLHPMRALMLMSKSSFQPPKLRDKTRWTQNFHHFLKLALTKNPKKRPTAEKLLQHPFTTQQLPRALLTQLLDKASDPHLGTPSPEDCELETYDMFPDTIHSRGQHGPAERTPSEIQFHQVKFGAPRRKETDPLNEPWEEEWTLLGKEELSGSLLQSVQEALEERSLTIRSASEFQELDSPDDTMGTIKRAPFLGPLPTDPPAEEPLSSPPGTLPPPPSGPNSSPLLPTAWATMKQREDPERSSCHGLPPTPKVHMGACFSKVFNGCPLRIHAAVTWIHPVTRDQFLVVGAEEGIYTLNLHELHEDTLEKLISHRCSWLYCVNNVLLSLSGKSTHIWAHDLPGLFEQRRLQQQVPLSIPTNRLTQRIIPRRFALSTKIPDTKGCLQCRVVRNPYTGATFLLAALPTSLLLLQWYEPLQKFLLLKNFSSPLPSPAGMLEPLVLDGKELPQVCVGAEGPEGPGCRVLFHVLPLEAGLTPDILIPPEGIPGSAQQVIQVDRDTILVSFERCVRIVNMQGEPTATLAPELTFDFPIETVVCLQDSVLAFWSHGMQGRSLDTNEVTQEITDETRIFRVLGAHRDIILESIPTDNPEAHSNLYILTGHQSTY
Chain of MARK4 (human) (Q96L34 whole entry, looked up): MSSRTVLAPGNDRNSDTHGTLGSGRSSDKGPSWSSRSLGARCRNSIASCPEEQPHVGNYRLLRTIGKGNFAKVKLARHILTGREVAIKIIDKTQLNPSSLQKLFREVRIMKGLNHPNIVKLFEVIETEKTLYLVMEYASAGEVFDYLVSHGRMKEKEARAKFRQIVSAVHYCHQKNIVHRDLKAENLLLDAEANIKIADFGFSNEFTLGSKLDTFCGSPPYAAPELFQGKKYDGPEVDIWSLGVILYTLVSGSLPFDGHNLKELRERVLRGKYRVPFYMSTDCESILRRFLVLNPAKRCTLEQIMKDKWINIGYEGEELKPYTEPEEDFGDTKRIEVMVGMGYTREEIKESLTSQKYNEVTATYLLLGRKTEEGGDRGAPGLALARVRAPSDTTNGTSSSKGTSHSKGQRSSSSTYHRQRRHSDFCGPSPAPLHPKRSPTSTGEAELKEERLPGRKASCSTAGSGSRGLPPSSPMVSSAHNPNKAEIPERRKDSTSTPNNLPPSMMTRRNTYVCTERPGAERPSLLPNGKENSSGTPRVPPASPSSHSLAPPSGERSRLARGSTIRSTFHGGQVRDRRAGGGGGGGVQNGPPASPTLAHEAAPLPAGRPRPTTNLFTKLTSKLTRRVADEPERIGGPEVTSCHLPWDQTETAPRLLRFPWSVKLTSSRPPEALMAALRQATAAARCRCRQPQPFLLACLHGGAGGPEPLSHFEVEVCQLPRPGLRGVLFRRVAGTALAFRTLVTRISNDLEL
Chain of CHEK2 (human) (O96017 whole entry, looked up): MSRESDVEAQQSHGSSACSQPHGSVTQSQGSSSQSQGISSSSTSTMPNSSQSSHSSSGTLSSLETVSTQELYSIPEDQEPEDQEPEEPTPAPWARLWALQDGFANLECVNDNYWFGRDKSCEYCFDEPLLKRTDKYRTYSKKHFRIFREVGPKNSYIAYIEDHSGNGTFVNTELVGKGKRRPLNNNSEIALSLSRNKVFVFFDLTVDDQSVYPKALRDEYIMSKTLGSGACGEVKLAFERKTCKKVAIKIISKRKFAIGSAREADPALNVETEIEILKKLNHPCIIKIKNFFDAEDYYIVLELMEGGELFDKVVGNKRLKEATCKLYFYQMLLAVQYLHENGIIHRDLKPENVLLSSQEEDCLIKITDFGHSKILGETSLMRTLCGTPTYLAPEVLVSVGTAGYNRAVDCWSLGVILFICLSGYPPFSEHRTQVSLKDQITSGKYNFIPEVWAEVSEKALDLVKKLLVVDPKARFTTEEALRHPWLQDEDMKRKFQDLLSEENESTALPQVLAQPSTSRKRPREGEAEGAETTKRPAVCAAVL
Chain of FLT1 (human) (P17948 whole entry, looked up): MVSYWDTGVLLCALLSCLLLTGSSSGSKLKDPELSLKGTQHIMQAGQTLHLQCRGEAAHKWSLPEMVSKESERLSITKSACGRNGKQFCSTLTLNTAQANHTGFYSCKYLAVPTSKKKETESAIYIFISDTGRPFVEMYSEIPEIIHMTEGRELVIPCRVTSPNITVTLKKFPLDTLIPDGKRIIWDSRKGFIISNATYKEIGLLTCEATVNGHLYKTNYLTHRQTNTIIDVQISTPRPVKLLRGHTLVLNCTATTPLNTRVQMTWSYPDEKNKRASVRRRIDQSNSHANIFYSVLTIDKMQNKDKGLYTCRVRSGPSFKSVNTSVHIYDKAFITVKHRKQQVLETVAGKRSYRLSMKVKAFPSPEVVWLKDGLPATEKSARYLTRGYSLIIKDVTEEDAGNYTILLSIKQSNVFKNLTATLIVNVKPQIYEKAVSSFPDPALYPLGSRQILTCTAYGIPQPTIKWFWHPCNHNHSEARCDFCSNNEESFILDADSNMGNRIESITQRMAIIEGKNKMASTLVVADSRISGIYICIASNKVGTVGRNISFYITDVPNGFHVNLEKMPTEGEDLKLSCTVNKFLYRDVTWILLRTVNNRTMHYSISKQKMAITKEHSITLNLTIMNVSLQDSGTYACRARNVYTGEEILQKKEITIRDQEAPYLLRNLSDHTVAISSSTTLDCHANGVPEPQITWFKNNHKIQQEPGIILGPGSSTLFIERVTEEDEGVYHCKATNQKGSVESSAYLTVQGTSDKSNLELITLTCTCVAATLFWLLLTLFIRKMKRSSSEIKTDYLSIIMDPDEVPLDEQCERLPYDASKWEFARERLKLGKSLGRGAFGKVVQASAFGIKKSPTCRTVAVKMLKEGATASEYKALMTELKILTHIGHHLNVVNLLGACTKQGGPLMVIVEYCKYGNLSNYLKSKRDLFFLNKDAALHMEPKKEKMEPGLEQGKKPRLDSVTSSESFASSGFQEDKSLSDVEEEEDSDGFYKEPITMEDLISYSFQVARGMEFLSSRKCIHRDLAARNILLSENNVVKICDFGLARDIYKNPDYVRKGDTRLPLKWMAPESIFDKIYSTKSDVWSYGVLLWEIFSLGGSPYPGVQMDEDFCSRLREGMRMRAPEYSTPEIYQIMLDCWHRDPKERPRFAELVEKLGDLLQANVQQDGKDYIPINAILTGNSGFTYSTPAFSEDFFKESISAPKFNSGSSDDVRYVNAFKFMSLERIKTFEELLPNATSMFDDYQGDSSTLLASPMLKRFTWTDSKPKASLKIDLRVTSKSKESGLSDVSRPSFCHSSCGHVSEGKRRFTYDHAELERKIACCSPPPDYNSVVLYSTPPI

Q: How did the residual activity (CLK2 (human); compound 0.1 µM) turn out when `NC(=O)c1cc(-c2ccnc(NC3CCCCC3)c2)nc(N2CCNCC2)c1` was run?
A: Its residual activity is 78%.

Q: And the residual activity (CLK2 (human); compound 10.0 µM)?
A: The residual activity was 51%.

Q: What about the residual activity (HIPK3 (human); compound 0.1 µM) of the same compound?
A: Its residual activity is 95%.

Q: And the residual activity (HIPK3 (human); compound 1.0 µM)?
A: The residual activity was 92%.

Q: What about the residual activity (HIPK3 (human); compound 10.0 µM) of the same compound?
A: The residual activity was 101%.

Q: And the residual activity (STK3 (human); compound 0.1 µM)?
A: The residual activity was 103%.

Q: And the residual activity (STK3 (human); compound 1.0 µM)?
A: The residual activity was 110%.

Q: What about the residual activity (STK3 (human); compound 10.0 µM) of the same compound?
A: The residual activity was 98%.

Q: And the residual activity (PRKCZ (human); compound 0.1 µM)?
A: Its residual activity is 88%.

Q: What about the residual activity (PRKCZ (human); compound 1.0 µM) of the same compound?
A: The residual activity was 109%.

Q: What about the residual activity (PRKCZ (human); compound 10.0 µM) of the same compound?
A: The residual activity was 84%.

Q: And the residual activity (JAK2 JH1 JH2 (human); compound 0.1 µM)?
A: Its residual activity is 82%.

Q: And the residual activity (JAK2 JH1 JH2 (human); compound 1.0 µM)?
A: Its residual activity is 87%.

Q: And the residual activity (JAK2 JH1 JH2 (human); compound 10.0 µM)?
A: The residual activity was 89%.

Q: What about the residual activity (MST4 (human); compound 0.1 µM) of the same compound?
A: Its residual activity is 117%.

Q: What about the residual activity (MST4 (human); compound 1.0 µM) of the same compound?
A: The residual activity was 107%.

Q: What about the residual activity (MST4 (human); compound 10.0 µM) of the same compound?
A: The residual activity was 95%.

Q: And the residual activity (MAP3K5 (human); compound 0.1 µM)?
A: The residual activity was 98%.

Q: And the residual activity (MAP3K5 (human); compound 1.0 µM)?
A: Its residual activity is 84%.

Q: And the residual activity (MAP3K5 (human); compound 10.0 µM)?
A: Its residual activity is 21%.

Q: And the residual activity (PLK1 (human); compound 0.1 µM)?
A: The residual activity was 101%.

Q: And the residual activity (PLK1 (human); compound 1.0 µM)?
A: Its residual activity is 117%.

Q: What about the residual activity (PLK1 (human); compound 10.0 µM) of the same compound?
A: The residual activity was 111%.

Q: What about the residual activity (MARK3 (human); compound 0.1 µM) of the same compound?
A: Its residual activity is 92%.

Q: And the residual activity (MARK3 (human); compound 1.0 µM)?
A: The residual activity was 40%.

Q: And the residual activity (MARK3 (human); compound 10.0 µM)?
A: The residual activity was 15%.

Q: What about the residual activity (PRKCA (human); compound 0.1 µM) of the same compound?
A: Its residual activity is 97%.

Q: And the residual activity (PRKCA (human); compound 1.0 µM)?
A: Its residual activity is 95%.

Q: And the residual activity (PRKCA (human); compound 10.0 µM)?
A: The residual activity was 90%.

Q: What about the residual activity (FLT1 (human); compound 0.1 µM) of the same compound?
A: Its residual activity is 95%.

Q: And the residual activity (FLT1 (human); compound 1.0 µM)?
A: Its residual activity is 88%.

Q: What about the residual activity (FLT1 (human); compound 10.0 µM) of the same compound?
A: Its residual activity is 68%.

Q: And the residual activity (NUAK1 (human); compound 1.0 µM)?
A: The residual activity was 17%.

Q: And the residual activity (NUAK1 (human); compound 10.0 µM)?
A: Its residual activity is 32%.

Q: What about the residual activity (MAPK1 (human); compound 0.1 µM) of the same compound?
A: The residual activity was 36%.

Q: What about the residual activity (MAPK1 (human); compound 1.0 µM) of the same compound?
A: Its residual activity is 29%.

Q: What about the residual activity (MAPK1 (human); compound 10.0 µM) of the same compound?
A: The residual activity was 6%.

Q: What about the residual activity (RPS6KA5 KD1 KD2 (human); compound 0.1 µM) of the same compound?
A: Its residual activity is 97%.

Q: What about the residual activity (RPS6KA5 KD1 KD2 (human); compound 1.0 µM) of the same compound?
A: The residual activity was 109%.

Q: What about the residual activity (RPS6KA5 KD1 KD2 (human); compound 10.0 µM) of the same compound?
A: The residual activity was 79%.

Q: And the residual activity (TAOK1 (human); compound 0.1 µM)?
A: The residual activity was 103%.

Q: What about the residual activity (TAOK1 (human); compound 10.0 µM) of the same compound?
A: Its residual activity is 53%.

Q: And the residual activity (HIPK1 (human); compound 0.1 µM)?
A: Its residual activity is 99%.

Q: What about the residual activity (HIPK1 (human); compound 1.0 µM) of the same compound?
A: Its residual activity is 99%.

Q: And the residual activity (HIPK1 (human); compound 10.0 µM)?
A: Its residual activity is 106%.

Q: What about the residual activity (EPHB4 (human); compound 0.1 µM) of the same compound?
A: The residual activity was 103%.

Q: And the residual activity (EPHB4 (human); compound 10.0 µM)?
A: Its residual activity is 91%.

Q: What about the residual activity (ERBB4 (human); compound 0.1 µM) of the same compound?
A: The residual activity was 83%.

Q: What about the residual activity (ERBB4 (human); compound 10.0 µM) of the same compound?
A: Its residual activity is 73%.

Q: And the residual activity (BRSK2 (human); compound 0.1 µM)?
A: Its residual activity is 67%.

Q: What about the residual activity (BRSK2 (human); compound 1.0 µM) of the same compound?
A: Its residual activity is 26%.

Q: What about the residual activity (BRSK2 (human); compound 10.0 µM) of the same compound?
A: Its residual activity is 8%.

Q: What about the residual activity (AURKA (human); compound 0.1 µM) of the same compound?
A: Its residual activity is 92%.

Q: And the residual activity (AURKA (human); compound 1.0 µM)?
A: Its residual activity is 88%.

Q: And the residual activity (AURKA (human); compound 10.0 µM)?
A: The residual activity was 112%.

Q: What about the residual activity (SRC (human); compound 0.1 µM) of the same compound?
A: The residual activity was 106%.

Q: And the residual activity (SRC (human); compound 1.0 µM)?
A: Its residual activity is 90%.

Q: And the residual activity (SRC (human); compound 10.0 µM)?
A: The residual activity was 66%.

Q: And the residual activity (MAPK3 (human); compound 0.1 µM)?
A: Its residual activity is 78%.

Q: And the residual activity (MAPK3 (human); compound 1.0 µM)?
A: The residual activity was 34%.

Q: What about the residual activity (MAPK3 (human); compound 10.0 µM) of the same compound?
A: The residual activity was 10%.

Q: And the residual activity (MAP3K1 (human); compound 0.1 µM)?
A: Its residual activity is 115%.

Q: And the residual activity (MAP3K1 (human); compound 10.0 µM)?
A: The residual activity was 102%.

Q: What about the residual activity (EEF2K (human); compound 0.1 µM) of the same compound?
A: The residual activity was 105%.

Q: And the residual activity (EEF2K (human); compound 1.0 µM)?
A: The residual activity was 111%.

Q: What about the residual activity (EEF2K (human); compound 10.0 µM) of the same compound?
A: Its residual activity is 87%.

Q: And the residual activity (CDK2 CCNA2 (human); compound 0.1 µM)?
A: Its residual activity is 66%.

Q: And the residual activity (CDK2 CCNA2 (human); compound 1.0 µM)?
A: The residual activity was 30%.

Q: What about the residual activity (CDK2 CCNA2 (human); compound 10.0 µM) of the same compound?
A: The residual activity was 11%.

Q: What about the residual activity (PAK6 (human); compound 0.1 µM) of the same compound?
A: Its residual activity is 99%.

Q: What about the residual activity (PAK6 (human); compound 1.0 µM) of the same compound?
A: The residual activity was 99%.

Q: What about the residual activity (PAK6 (human); compound 10.0 µM) of the same compound?
A: Its residual activity is 81%.

Q: And the residual activity (GCK (human); compound 0.1 µM)?
A: Its residual activity is 41%.

Q: What about the residual activity (GCK (human); compound 1.0 µM) of the same compound?
A: The residual activity was 82%.

Q: And the residual activity (GCK (human); compound 10.0 µM)?
A: Its residual activity is 44%.

Q: And the residual activity (MARK4 (human); compound 0.1 µM)?
A: Its residual activity is 87%.

Q: What about the residual activity (MARK4 (human); compound 1.0 µM) of the same compound?
A: Its residual activity is 46%.

Q: And the residual activity (MARK4 (human); compound 10.0 µM)?
A: Its residual activity is 10%.

Q: What about the residual activity (CHEK2 (human); compound 0.1 µM) of the same compound?
A: Its residual activity is 102%.

Q: And the residual activity (CHEK2 (human); compound 1.0 µM)?
A: The residual activity was 106%.

Q: What about the residual activity (CHEK2 (human); compound 10.0 µM) of the same compound?
A: The residual activity was 88%.

Q: What about the residual activity (RPS6KA3 KD1 KD2 (human); compound 0.1 µM) of the same compound?
A: Its residual activity is 98%.

Q: And the residual activity (RPS6KA3 KD1 KD2 (human); compound 10.0 µM)?
A: The residual activity was 81%.

Q: And the residual activity [1]?
A: The residual activity was 90%.

Q: And the residual activity (DAPK1 (human); compound 0.1 µM)?
A: The residual activity was 102%.

Q: And the residual activity (DAPK1 (human); compound 1.0 µM)?
A: Its residual activity is 93%.

Q: And the residual activity (DAPK1 (human); compound 10.0 µM)?
A: Its residual activity is 40%.

Q: And the residual activity (NTRK1 (human); compound 0.1 µM)?
A: The residual activity was 72%.

Q: And the residual activity (NTRK1 (human); compound 10.0 µM)?
A: Its residual activity is 71%.

Q: What about the residual activity (CHEK1 (human); compound 1.0 µM) of the same compound?
A: Its residual activity is 100%.

Q: And the residual activity (CHEK1 (human); compound 10.0 µM)?
A: Its residual activity is 70%.

Q: What about the residual activity (RPS6KA1 KD1 KD2 (human); compound 0.1 µM) of the same compound?
A: The residual activity was 88%.

Q: And the residual activity (RPS6KA1 KD1 KD2 (human); compound 1.0 µM)?
A: The residual activity was 53%.

Q: And the residual activity (RPS6KA1 KD1 KD2 (human); compound 10.0 µM)?
A: The residual activity was 2%.
